Experimental data published in patent publication US10647680B2, “Urea compound, preparation method therefor and medical use thereof” (Ancureall Pharmaceutical (Shanghai) Co., Ltd., priority 2016, dated 2020).

Columns and labels:
U937 (FLT3 wild-type) = test: In vitro growth inhibition (GI50), U937; assay type: cell-based; conditions: Homo sapiens, U-937; Cell lines of leukemia; read-out: GI 50 U937 FLT 3(WT)
NCI-H292 (EGFR WT) = test: In vitro growth inhibition (GI50), NCI-H292; assay type: cell-based; conditions: Homo sapiens
Description: Tumor cell line is an effective cell model for studying the inhibition of tumor cell growth or proliferation in vitro. In the present invention, a representative tumor cell line was selected to determine the cell growth inhibition activity of the present compound. All cell lines used were from ATCC, DSMZ, and the Cell Bank of the Chinese Academy of Sciences. Cell culture conditions and methods were in accordance with the requirements of each cell line. Cells were subcultured in vitro for no more than 3 passages each time, and as required, single-clone purification and identification of cell lines could be carried out.
The cell culture media used were RPMI1640 (Gibco), MEM (Gibco), McCOY'S5A (Gibco), and IMDM (Gibco). The complete medium was prepared by supplement with 5˜20% fetal calf serum (Gibco), 1% double-antibiotics (10000 units/mL penicillin and 10000 units/mL), 2 mM glutamine or 1 mM sodium pyruvate, respectively.
Human epidermal cancer cell line A431 (EGFR WT, amplification and high expression, from Shanghai Cell Bank of Chinese Academy of Sciences and ATCC), human lung cancer cell line NCI-H292 (EGFR WT, purchased from Shanghai Cell Bank of Chinese Academy of Sciences), NSCLC cell lines PC-9 and HCC827 (EGFR exon19 E746-A750 deletion, two cell lines are sensitive to the first-generation EGFR PTK inhibitor), NSCLC cell line NCI-H1975 (EGFR L858R/T790M and the first-generation EGFR inhibitor resistance, ATCC) were cultured with 1×RPMI1640 complete medium (supplement with 10% FBS), respectively.
Adherent cells were digested with 0.25% pancreatin-EDTA (Gibco). The suspension cells were collected by centrifugation. The supernatant was discarded and the cell pellet was resuspended and counted. Different cell concentrations (5˜10×10^4 cells/mL) were prepared according to the growth cycle of each cell line and then seeded on a 96-well plate (Corning), 100 μL/well. The cells were incubated overnight at 37° C., 5% CO2. The compounds were added to the cells on the second day with 2 wells in parallel. The final concentration of organic solvent shall not exceed 1%. The cells were continually incubated for 3 to 5 days, and then subjected to MTT assay.
The compound of the present invention and the control compound were dissolved in DMSO (Sigma) respectively, with the purity of more than 98%. The compound was stored in a concentration of 10 mM at −20° C. and diluted to 2- or 10-fold series prior to use.
Dojindo CCK8 reagent kit was used as MTT assay. THERMO […] FC meter was used as microplate reader.
For adherent cells, culture medium was removed and immediately replaced with the fresh prepared medium which contains 10% CCK8 reagent (100 μL/well). For the suspension cells, CCK8 was directly added to 10% of the final concentration. The cells were continually incubated for 1˜4 h. When a dark yellow color could be observed in the solvent control wells, the absorbance value at OD450 nm was measured and the cell growth rate was calculated according to the following formula: Cell Growth Rate (%)=100*(T−T0)/(C−T0) T=optical density of drug treatment cell well—optical density of blank control well; T0=optical density of cell well before drug treatment—optical density of blank control well; C=optical density of cell well of solvent control group—optical density of blank control well. The concentration value of 50% inhibition of cell growth (GI50) was calculated according to the drug concentration and cell growth rate curve. The experiment was independently repeated 1˜3 times, and subject to biological statistical analysis. 4. Experimental Results
Tumor cell growth inhibition test was performed by selecting representative compounds (compounds 4, 11, 12, 16, 27, 68, 71, 77, 79, 89 and 116 of the present invention). The initial concentration of the compound was 5,000 nM, then it was serially diluted by 2-fold or 10-fold to 0.01 nM. The GI50 value of each test compound was calculated according to the GI50 assay and calculation method. […]

GI50 (U937 (FLT3 wild-type)) [nM]	GI50 (NCI-H292 (EGFR WT)) [nM]	SMILES
100 to 1000	> 2500	CC(C)(C)c1cc(NC(=O)Nc2ccc(-n3cnc4cc(O)ccc43)cc2)no1 [Compound 4, 1-(5-tert-butyl-isoxazol-3-yl)-3-[4-(5-hydroxy-benzimidazol-1-yl)-phenyl]-urea]
> 1000	> 2500	CC(C)(C)c1cc(NC(=O)Nc2ccc(-n3cnc4cc(OCCO)ccc43)cc2)no1 [Compound 11, 1-(5-tert-butyl-isoxazol-3-yl)-3-{4-[5-(2-hydroxy-ethoxyl)-benzimidazol-1-yl]-phenyl]-urea]
> 1000	> 2500	CC(C)(C)c1cc(NC(=O)Nc2ccc(-n3cnc4cc(OCCN5CCOCC5)ccc43)cc2)no1 [Compound 16, 1-(5-tert-butyl-isoxazol-3-yl)-3-{4-[5-(2-morpholin-4-yl-ethoxyl)-benzimidazol-1-yl]-phenyl}-urea]
> 1000	> 2500	CC(C)(C)c1cc(NC(=O)Nc2ccc(-n3cnc4ccc(OCCN5CCOCC5)cc43)cc2)no1 [Compound 27, 1-(5-tert-butyl-isoxazol-3-yl)-3-{4-[6-(2morpholin-4-yl-ethoxyl)-benzimidazol-1-yl]-phenyl}-urea]
> 1000	> 2500	CC(C)(C)c1cc(NC(=O)Nc2ccc(-n3cnc4ccccc43)cc2)[nH]n1 [Compound 68, 1-(4-benzimidazol-1-yl-phenyl)-3-(5-tert-butyl-2H-pyrazol-3-yl)-urea]
> 1000	> 2500	COc1ccc2c(c1)ncn2-c1ccc(NC(=O)Nc2cc(C(C)(C)C)n[nH]2)cc1 [Compound 71, 1-(5-tert-butyl-2H-pyrazol-3-yl)-3-[4-(5-methoxyl-benzimidazol-1-yl)-phenyl]-urea]
> 1000	> 2500	CC(C)(C)c1cc(NC(=O)Nc2ccc(-n3cnc4cc(OCCO)ccc43)cc2)[nH]n1 [Compound 79, 1-(5-tert-butyl-2H-pyrazol-3-yl)-3-{4-[5-(2-hydroxy-ethoxyl)-benzimidazol-1-yl]-phenyl]urea]
> 1000	> 2500	CC(C)(C)c1cc(NC(=O)Nc2ccc(-n3cnc4cc(OCCN5CCOCC5)ccc43)cc2)[nH]n1 [Compound 89, 1-(5-tert-butyl-2H-pyrazol-3-yl)-3-{4-[5-(2-morpholin-4-yl-ethoxyl)-benzimidazol-1-yl]-phenyl}-urea]
> 1000	> 2500	CC(C)(C)c1cc(N)n(C(=O)Nc2ccc(-n3cnc4ccccc43)cc2)n1 [Compound 116, 5-amino-3-tert-butyl-pyrazol-1-carboxylic acid (4-benzimidazol-1-yl-phenyl)-amide]

SMILES	GI50 (U937 (FLT3 wild-type)) [nM]	GI50 (NCI-H292 (EGFR WT)) [nM]
COCCOc1ccc2c(c1)ncn2-c1ccc(NC(=O)Nc2cc(C(C)(C)C)n[nH]2)cc1 [Compound 77, 1-(5-tert-butyl-2H-pyrazol-3-yl)-3-{4-[5-(2-methoxyl-ethoxyl)-benzimidazol-1-yl]-phenyl}-urea]	> 1000	> 2500
